Columns and labels:
cornea = experiment: Mean opacity and mean permeability measurements, rat alkali burn model; format: in vivo; conditions: for Mean in vitro score / Mean opacity measurement: 1 M NaOH 1 min, topical treatment 40 min; for Predicted irritation potential: rat, in vivo
Method: The mean in vivo scores was determined using the mean opacity measurements. The rat eyes were excised carefully and carried to the laboratory in HBSS supplemented with penicillin/streptomycin. The measurement of mean opacity was carried out using an opacitometer which measures the transmission of light through the center of each mounted cornea. The mean permeability score was determined by adding a fluorescent (rhodamine solution) on the anterior side of the holder and the corneas were incubated in a horizontal position for 90 min at 32°C. The medium in the posterior chamber was removed and added to 96 well plates and the OD at 490 nm was read. The readings obtained at OD490 were used to determine the permeability of each treatment with respect to the change in the untreated corneas.

[1] = system: conjunctival layer and corneal matrix; experiment: H&E histology of corneal segments, rat alkali burn model; format: in vivo; conditions: 1 M NaOH 1 min, topical treatment 40 min
Method: After the completion of the study, all tissues that required to be examined (eyes, brain, kidneys, liver, spleen, heart and lungs) were isolated. The cornea was carefully separated from the eye without damaging it and washed using phosphate buffer saline (PBS). Tissues were fixed using 4% paraformaldehyde (PF) overnight at 4°C and then washed in PBS. The tissue segments were dehydrated in graded ethanol, embedded in paraffin and 5–7 μm thick sections were cut using a microtome. Sections were collected on poly-lysine coated slides using the Leica cryostat and were fixed immediately in ice-cold acetone. All the sections were stained for haematoxylin–eosin (H&E) for critical analysis.

corneal lysate = experiment: Multianalyte ELISA of inflammatory cytokines in corneal lysate; format: in vivo, rat
Method: The cytokine profiling was performed using the Rat Inflammatory Cytokines & Chemokines Multi-Analyte ELISArray Kit (QIAGEN, USA). Briefly, serial dilutions of the Antigen Standard and the experimental samples were prepared. 50 μL of Assay Buffer was added to each well of the 8-well ELISA strips. Fifty microliters samples and/or standards were added to the appropriate wells of the ELISA strips and incubated for 2 h at room temperature. The ELISA strips were further washed using 350 μL 1 × Washing Buffer thrice. Hundred microliters of Detection Antibody solution was added to the ELISA strips and incubated for 1 h at room temperature. ELISA wells were washed as mentioned above. Hundred microliters of the Avidin–HRP solution was added to all wells and incubated for 30 min at room temperature. ELISA wells were washed as mentioned above. Hundred microliters of Development Solution was added to each well and incubated for 15 min at room temperature in the dark. Hundred microliters of Stop Solution was added to each well. The color changed from blue to yellow. The absorbance at 450 nm was measured within 30 min of stopping the reaction. The estimation of pg/mL of cytokines was performed using the values obtained from antigen standards and a graph was plotted for the cytokine expression with the effect of treatments.

Blood analysis = format: in vivo; design: HCT / MCH / WBC / RBC / HGB / MCHC: unit not given here; conditions: rat blood; for MCV: in fL (unit assumed)
Method: The analysis of blood samples was performed directly using the ABX Micros ES 60 (Horiba Medicals). The parameters analyzed included the number of red blood cells (RBC’s), white blood cells (WBC’s), platelets and hemoglobin content. Briefly, 20 μL of the blood sample was acquired in the instrument and the readings were recorded.

rat corneal tissues = conditions: for clathrin (conjunctival layer) and claudin (corneal layer) expressions, immunofluorescence: post-NaOH insult
[2] = system: rat eyes post-alkali burn
[3] = system: expression of survivin, TGF-beta-1, alpha-SMA and collagen IV in alkali burnt cornea; experiment: Ex vivo RT-PCR dose ranging in alkali burnt rat eyes; conditions: 1 M NaOH 1 min, treatment 40 min
Method: This procedure was carried out using a previously published protocol ([Lin et al., 2016]). Rat eyes were harvested from humanely killed rats and washed with HBSS. Rat eyes were further incubated with 1 M NaOH for 1 min and then treated with TSA ([…]), SurR9-C84A (0.5, 1.2, and 2.5 mg/kg), pSur/As-Sur ([…]) and empty plasmid (200, 400, and 800 μg/kg) for 40 min. Untreated eyes were maintained as controls. After treatment period, eyes were washed with PBS and total RNA was extracted using the TRIzol® reagent (cat# 15596-026, Thermo Fisher Scientific, Waltham, MA, USA), and complementary DNA (cDNA) was synthesized from RNA using the RevertAid H Minus First Strand cDNA Synthesis Kit (cat# K1631, Thermo Fisher Scientific). Expression of survivin, TGF-beta-1, alpha-SMA and collagen IV was determined by polymerase chain reaction (PCR).

Molecule	Mean in vitro score (cornea)	Mean opacity measurement (cornea)	Predicted irritation potential (cornea)	corneal tissue integrity (conjunctival layer, corneal matrix), H&E [1]	IL-1 beta expression, ELISA (corneal lysate)	IL-4 expression, ELISA (corneal lysate)	MCHC (Blood analysis)	RBC (Blood analysis)	WBC (Blood analysis)	MCV (Blood analysis)	alpha-SMA expression, immunofluorescence (rat corneal tissues; confocal microscopy)	survivin expression, immunofluorescence (rat corneal tissues; confocal microscopy)	clathrin (conjunctival layer) and claudin (corneal layer) expressions, immunofluorescence (rat corneal tissues)	Collagen type IV gene expression, qRT-PCR [2]	IL-1 beta gene expression, qRT-PCR [2]	MMP-2 gene expression, qRT-PCR [2]	TGF-beta-1 gene expression, qRT-PCR [2]	other results
[Na+].[OH-] [NaOH]	10.2 ± 0.5^∗∗∗	2.5 ± 0.5^∗∗	Moderate irritation	damage of the conjunctival layer and the corneal matrix	increase	decrease	37.51 ± 4.79	6.53 ± 2.89	3.4 ± 1.19	62.5 ± 8.01	substantially enhanced	slightly increased	substantially lowered	increase	decreased	increase	increase	GMCSF expression, ELISA (corneal lysate): enhanced; IFN-gamma expression, ELISA (corneal lysate): upregulated; IL-6 expression, ELISA (corneal lysate): enhanced; IL-10 expression, ELISA (corneal lysate): significant increase; IL-12 expression, ELISA (corneal lysate): decreased; IL-13 expression, ELISA (corneal lysate): enhanced; Rantes expression, ELISA (corneal lysate): upregulated; TNF-alpha expression, ELISA (corneal lysate): enhanced; collagen type IV expression, immunofluorescence (rat corneal tissues; confocal microscopy): downregulated; increase in alpha-SMA expression, western blot (rat corneal lysates; NaOH insult): 2.7 fold; decrease/downregulation of collagen type IV, western blot (rat corneal lysates; rat, in vivo, iv): 1.1 fold; IL-6 gene expression, qRT-PCR [2]: increased; MMP-9 gene expression, qRT-PCR [2]: lowered; TNF-alpha gene expression, qRT-PCR [2]: increased; alpha-integrin 5 gene expression, qRT-PCR [2]: lowered
SurR9-C84A: dominant negative survivin protein (survivin mutant)	0.0^∗	0.0^∗	No irritation	recovery of the conjunctival layer	further increase	increase	36.61 ± 1.57	8.35 ± 0.99	1.3 ± 3.18	55.66 ± 1.86	substantial decrease	increase	more effective than TSA alone	efficiently downregulated	increase	downregulating	further increase	most effective dosage in inhibiting expression of survivin, alpha-SMA, TGF-beta-1 and collagen IV [3]: 1.2 mg/kg; IL-1 alpha expression, ELISA (corneal lysate): significantly increase; IL-2 expression, ELISA (corneal lysate): significantly increased; HCT (Blood analysis): increased the HCT count to normal range; HGB (Blood analysis): 17.1 ± 1.11; MCH (Blood analysis): reduced to normal range; PLT (Blood analysis): increased; HCT (Blood analysis; listed as NaOH–SurR9-C84A): 46.85 ± 4.14; MCH (Blood analysis; listed as NaOH–SurR9-C84A): 20.36 ± 1.42; PLT (Blood analysis; listed as NaOH–SurR9-C84A): 547.16 ± 130; downregulation of alpha-SMA, western blot (rat corneal lysates; post-NaOH insult): 6.75 fold; enhancement of Fibronectin-1 expression, western blot (rat corneal lysates; post-NaOH insult): 1.97 fold; increase in TGF-beta-1 expression, western blot (rat corneal lysates; post-NaOH insult): 2.4 fold; increase in survivin expression, western blot (rat corneal lysates; post-NaOH insult): 7.7 fold; Fibronectin-1 gene expression, qRT-PCR [2]: significantly enhanced; alpha-SMA gene expression, qRT-PCR [2]: significant decrease; survivin gene expression, qRT-PCR [2]: significantly increased

— paper PMC5418359, “Topical Ophthalmic Formulation of Trichostatin A and SurR9-C84A for Quick Recovery Post-alkali Burn of Corneal Haze” (Frontiers in Pharmacology, 2017)
